In the NIST ThermoML archive (doi:10.1016/j.fluid.2005.11.015):
Numbers after ± are expanded uncertainties.

Conditions: Crystal; visual observation

Normal melting temperature: 67.0 ± 2 °C
SMILES: CCCCn1cc[n+](C)c1.[Cl-] [1-butyl-3-methylimidazolium chloride]
